US20070275935A1, “Estratriene Derivatives” (priority 2003, published 2007)
Like-named read-outs stand apart in the source and are kept apart here.

What was measured:
[1] = test system: Human airway smooth muscle (HASM) cells; assay: Thrombin-induced proliferation of human airway smooth muscle (HASM) cells, cell number after 48 h; type: cell-based; details: for IC50: Homo sapiens, read-out: HASM-Thr pIC50 (converted); for HASM- Thr pIC25 / HASM- Thr pIC75: two site model, thrombin-induced proliferation; for HASM- Thr pIC25: first phase (inhibition up to 50%); for HASM- Thr pIC75: second phase (inhibition up to 100%)
Procedure: Human airway smooth muscle (HASM) cells were cultured from macroscopically normal bronchi (0.5-2 cm diameter) obtained from lung resection or heart-lung transplant specimens provided by the Alfred Hospital (Melbourne) according to methods published in detail previously (Fernandes et al., 1999).
Approximately 0.1 g of smooth muscle was stripped from the wall of the bronchus for each cell culture. Dissected tissue was immersed in Dulbecco's modified Eagle's medium (DMEM) (Flow Laboratories, Scotland), supplemented with 100 U/mL penicillin G (CSL, Australia) and 100 ug/mL streptomycin (CSL, Australia). The tissue was rinsed in phosphate buffered saline (PBS; Oxoid, England) and the airway smooth muscle was chopped into 2 mm^3 pieces and digested for 2 hours in DMEM containing elastase (0.5 mg/mL: Worthington Biochemical, USA) followed by a 12 hour incubation in DMEM containing collagenase (1 mg/mL) (Worthington Biochemical, USA), at 37° C. with agitation.
The resulting cell suspension was centrifuged and washed three times in phosphate buffered saline (PBS). Following the last centrifugation step, the cells were resuspended in 25 mL of DMEM supplemented with L-glutamine (2 mM: Sigma, USA), penicillin G (100 U/mL), streptomycin (100 μg/mL), amphotericin B (2 μg/mL: Wellcome, UK) and heat-inactivated FCS (10% v/v: CSL, Australia) and seeded into 25 cm^2 culture flasks. The primary isolates were incubated for 7 to 14 days to reach confluence.
Cells were harvested weekly by 10 min exposure to trypsin (0.5%: CSL, Australia) and EDTA (1 mM in PBS: BDH, Australia) and passaged at a 1:3 ratio into 75 cm^2 flasks.
The activity of the compounds has been established in cell culture by exploring their effects on mitogen-induced increases in cell number. We investigated the effects of 2MEO and its analogues, 4NO and 4NOM, on the proliferation of HASM cells in response to the proliferative stimulus of either thrombin of basic fibroblast growth factor (bFGF). Cells were seeded onto 6-well plates at a density of 1.5×10^4 cells cm^2, made quiescent by removal of serum-containing media for 24 hours and then stimulated for 48 h with either thrombin (0.3 U/ml) or bFGF (300 pM). The test compounds were pre-incubated with HASM cells for 30 minutes before the addition of thrombin. At the end of the 48 hour incubation period, cells were detached from the culture plate by trypsin (0.5% w/v in PBS containing 1 mM EDTA), incubated for 5 minutes at ambient temperature in PBS containing 0.5% (w/v) trypan blue, washed twice (2% FCS in PBS), isolated by centrifugation (12,000×g, 5 min) and resuspended in 200 μl 2% FCS in PBS for counting in a haemocytometer chamber.
Data are expressed as a percentage of the cell number in vehicle treated wells and are presented as the mean and standard error of the mean.
The potency of the compounds in regulating thrombin-induced proliferation of human airway smooth muscle (HASM) was assessed in cells maintained in culture as described above. The potencies are presented as pIC50 values (Column A of Table 4) denoting the negative log of the concentration that reduces the proliferative response by 50%. […] When the single phase model was determined to be more appropriate, the values of pIC25 and pIC75 were not calculated or shown in the table.

[2] = test system: human breast tumour cell line, MCF7; assay: Proliferation of MCF7 cells in response to 5% FCS or EGF; type: cell-based; details: Homo sapiens, MCF7; proliferation in response to 5% FCS; pIC50 of 4.00 = inactive
Procedure: (§1) The effects of 4NO were evaluated in a number of non-smooth muscle cell types including the type II airway epithelial cell line, A549 (ATCC accession number ATCC CCL-185 Lung carcinoma human) (FIG. 2); the human breast tumour cell line, MCF7, (ATTC accession number ATCC HTB-22 breast adenocarcinoma, human) which expresses the estrogen receptor (FIG. 3); and in bovine aortic endothelial cells (BAEC) (FIG. 4).
(§2) The effects of test compounds were examined on proliferation of A549 cells in response to 5% fetal calf serum (FCS). Analogues were pre-incubated with A549 cells for 30 min before the addition of FCS. The incubation continued for 48 h before cell enumeration. Data are expressed as a percentage of the cell number in vehicle treated wells and are presented as the mean and standard error of the mean. Similarly the effects of 2MEO and 4NO on proliferation of MCF7 in response to 5% FCS or epidermal growth factor (EGF, 300 pM) were examined, as were the effects of 2MEO and 4NO on proliferation of BAEC in response to 5% FCS. The incubation parameters were the same as described above and results are presented as the mean and standard error of the mean.
(§3) This assay was also used to evaluate the ability of other compounds to inhibit the proliferation of non-smooth muscle cells MCF7 and A549 (described above) in response to 5% FCS. The results of this assay are presented in Table 4 (columns G and H respectively). The potency of the compounds was considerably less in inhibiting proliferation of these cell lines than it was for HASM. These observations support the contention that there are cell type-specific targets for the actions of these compounds. Such assays may also be adopted to examine the effect of other disclosed compounds on these cells or on other non-smooth muscle cells of interest.

[3] = test system: GM-CSF production by Human Airway Smooth Muscle Cells; assay: Interleukin-1α-mediated GM-CSF production by HASM cells (ELISA); type: cell-based; details: inhibition of interleukin-1α (1 ng/ml)-mediated GM-CSF production; concentration not given; * not defined
[4] = test system: type II airway epithelial cell line, A549; assay: Proliferation of A549 cells in response to 5% FCS; type: cell-based, human; details: Homo sapiens
Procedure: as §1, §2, §3

Estrogen Receptor (ER) = biological target: T1, Estrogen Receptor (ER) (Rattus norvegicus, UniProt P06211); assay: Estrogen receptor binding assay, 3H-estradiol displacement from rat uterine cytosol; details: 3H-estradiol displacement, cytosolic preparations of rat uterus; pIC50 of 4.00 = inactive; read-out: ER-RLB pIC50 (converted)
T1 construct: using rat uterine cytosol as a source of ER; from tissue; host or cells: rat uterus, cytosol fraction (30000 x g supernatant)
T1 sequence (P06211 1-600): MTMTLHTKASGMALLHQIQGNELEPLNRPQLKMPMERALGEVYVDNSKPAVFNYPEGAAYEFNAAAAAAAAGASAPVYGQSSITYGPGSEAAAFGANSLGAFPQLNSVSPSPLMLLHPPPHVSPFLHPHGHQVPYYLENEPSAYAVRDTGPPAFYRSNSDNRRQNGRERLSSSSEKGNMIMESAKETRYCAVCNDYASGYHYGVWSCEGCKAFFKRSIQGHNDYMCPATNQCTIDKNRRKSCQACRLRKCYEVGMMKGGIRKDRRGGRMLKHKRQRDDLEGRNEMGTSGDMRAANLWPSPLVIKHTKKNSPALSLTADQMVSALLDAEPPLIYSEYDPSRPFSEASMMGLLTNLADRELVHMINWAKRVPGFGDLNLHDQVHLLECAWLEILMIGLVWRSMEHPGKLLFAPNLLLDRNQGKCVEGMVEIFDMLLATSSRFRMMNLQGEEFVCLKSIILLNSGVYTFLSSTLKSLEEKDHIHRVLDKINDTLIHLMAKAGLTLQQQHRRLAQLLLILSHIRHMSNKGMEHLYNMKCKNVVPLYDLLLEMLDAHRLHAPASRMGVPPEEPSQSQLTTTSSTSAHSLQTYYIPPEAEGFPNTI
Procedure: Uteri (6-10 per batch) were isolated from Brown Norway rats (250-350g), washed free from blood in saline and homogenised in 10 mM Tris buffer (pH 7.4, 1.5 mM EDTA, 10% w/v glycerol, 1 mM phenylmethylsulfonylfluoride) using an Ultra Turrax homogeniser for 3 by 15 s bursts with intervals of 1 min on ice.
Nuclear material and cellular debris were removed by centrifugation at 750×g at 4° C. for 10 min (Sorvall RT7); the cytosol component was prepared by centrifugation at 30000×g for 120 min at 4° C. in a Beckman JM1 centrifuge. The cytosol was diluted to approximately 1 mg/ml protein (rat uterine extract) determined using the Bradford method (Biorad).
Separation of bound from free radioligand was achieved by the addition of 500 μL of dextran-coated charcoal (400 mg dextran clinical grade C and 2g of charcoal, Norit A in 100 mL of Tris buffer) and centrifugation at 4° C. in a Sorval RT7 at 2000×g for 10 min.

Pulmonary fibroblasts = assay: bFGF-induced proliferation of human pulmonary fibroblasts; type: cell-based; details: inhibition of bFGF (300 pM)-induced proliferation, mean and SEM, minimum 3 experiments; 1 μM; * not defined
Procedure: Samples of parenchyma from human lung transplant recipients were dissected away from the pleura, chopped into fragments of less than 1 mm^2 and allowed to adhere to plastic culture dishes in a minimal volume of DMEM containing serum (10%) and antibiotics (as used for HASM culture). After the tissue fragments had adhered to the base of the dish additional medium was added. Medium was changed twice weekly until an explant culture formed, at which time the tissue fragments were removed and the cells were passaged in a 1:3 split ratio by exposure to trypsin weekly to produce pulmonary fibroblast cultures.
Pulmonary fibroblasts were cultured in DMEM, serum-deprived for 24 h, in the presence or absence of the test compounds, and then stimulated with 300 pM bFGF for 48 h before harvest and counting of viable cells. An increase pulmonary fibroblast cell number was prevented by 4NOM over the concentration range of 1 to 1000 nM.
A range of the disclosed compounds was subsequently examined using the above assay system, and the results are summarized in Column E of Table 4. […] The proliferation of parenchymal fibroblasts is important in the development of pulmonary fibrosis.

[5] = negative log of the concentration that reduces the thrombin-induced proliferative response by 50%, pIC50 of 4.00 = inactive
[6] = A549, proliferation in response to 5% FCS, pIC50 of 4.00 = inactive, read-out: A549 PIC50 (converted)

SMILES	IC50 [1, 5] [µM]	HASM- Thr pIC25 [1]	HASM- Thr pIC75 [1]	IC50 [2] [µM]	HASM - GM-CSF [3]	IC50 [4, 6] [µM]	IC50 (Estrogen Receptor (ER)) [µM]	IC50 [1] [µM]	IC50 ([4]; A549, read-out: A549 PIC50) [µM]	pFib - bFGF (Pulmonary fibroblasts)
COc1cc2c(cc1O)CC[C@@H]1[C@@H]2CC[C@]2(C)/C(=N/OCc3cccc([N+](=O)[O-])c3)CC[C@@H]12 [CP-DM-3-104, 2-methoxyestrone-17-(3-nitrobenzyl)oxime]	0.55	7.16	5.02	8.51						
COc1ccc(CON=C2CCC3C4CCc5cc(O)c(OC)cc5C4CCC23C)cc1 (centres unmarked) [CP-DM-4-34, 2-methoxyestrone-17-(4-methoxybenzyl)oxime]		4.00	4.00	4.07	29 ± 12	2.14	40.7			
COc1cc2c(cc1O)/C(=N/Nc1ccc([N+](=O)[O-])cc1[N+](=O)[O-])C[C@@H]1[C@@H]2CC[C@]2(C)/C(=N/O)CC[C@@H]12 [CP-DM-3-119, 2-methoxy-6-(2,4-dinitrophenylhydrazono)estrone-17-oxime]								3.31	15.8	17 ± 14
CO/N=C1\CC[C@H]2[C@@H]3C/C(=N\OCc4cc(F)cc(F)c4)c4cc(O)c(OC)cc4[C@H]3CC[C@]12C [CP-DM-4-74, 6-(3,5difluorobenzyloxy)imino-2-methoxyestrone-17-methyloxime]	1.15	6.59	5.34	10	11 ± 8					5 ± 9
C[C@]12CC[C@@H]3c4ccc(O)cc4CC[C@H]3[C@@H]1CC/C2=N\OCc1ccc([N+](=O)[O-])cc1 [CP-DM-3-101, estrone-17-(4-nitrobenzyl)oxime]	1.91	6.27	5.06	12.6			2.4			
COc1ccc(CO/N=C2\CC[C@H]3[C@@H]4CCc5cc(O)ccc5[C@H]4CC[C@]23C)cc1 [CP-DM-4-33, estrone-17-(4-methoxybenzyl)oxime]	1.35	7.12	5.03	3.16		9.12	0.11			
COc1cc2c(cc1O)/C(=N/OCc1ccncc1)C[C@@H]1[C@@H]2CC[C@]2(C)/C(=N/O)CC[C@@H]12 [CP-DM-4-15, 2-methoxy-6-(4-pyridylmethyloxy)iminoestrone-17-oxime]	3.39			10	34 ± 11*		12.6			
COc1ccc(CO/N=C2\C[C@@H]3[C@H](CC[C@]4(C)/C(=N/O)CC[C@@H]34)c3cc(OC)c(O)cc32)cc1 [CP-DM-4-6, 2-methoxy-6-(4-methoxybenzyloxy)-iminoestrone-17-oxime]	0.117	9.57	4.94	2.29	28 ± 10*	7.76	45.7			
